Test results: ChEMBL document CHEMBL1150170, “An antiplasmodial lignan from Euterpe precatoria” (J Nat Prod, 2002)

Tested on: Plasmodium falciparum
Test: Antiplasmodial activity against chloroquine-sensitive Plasmodium falciparum 3D7 by [3H]phenylalanine uptake
Type: functional, organism-based

IC50: 12 µM
Structure (SMILES): COc1cc([C@@H]2Oc3c(OC)cc(/C=C/COC(=O)c4ccccc4)cc3[C@H]2COC(=O)c2ccccc2)ccc1O (racemic) [DEHYDRODICONIFERYL ALCOHOL DIBENZOATE]
